Where two headings read alike, the source gives them in different places. One block for each compound: values may come before it.
Assays:
[1] = biological target: T1, hMAO-A (Homo sapiens, UniProt P21397); assay: hMAO-A inhibition, chemiluminescent MAO-Glo assay and kinetic analysis; format: biochemical
T1 sequence (P21397 1-527): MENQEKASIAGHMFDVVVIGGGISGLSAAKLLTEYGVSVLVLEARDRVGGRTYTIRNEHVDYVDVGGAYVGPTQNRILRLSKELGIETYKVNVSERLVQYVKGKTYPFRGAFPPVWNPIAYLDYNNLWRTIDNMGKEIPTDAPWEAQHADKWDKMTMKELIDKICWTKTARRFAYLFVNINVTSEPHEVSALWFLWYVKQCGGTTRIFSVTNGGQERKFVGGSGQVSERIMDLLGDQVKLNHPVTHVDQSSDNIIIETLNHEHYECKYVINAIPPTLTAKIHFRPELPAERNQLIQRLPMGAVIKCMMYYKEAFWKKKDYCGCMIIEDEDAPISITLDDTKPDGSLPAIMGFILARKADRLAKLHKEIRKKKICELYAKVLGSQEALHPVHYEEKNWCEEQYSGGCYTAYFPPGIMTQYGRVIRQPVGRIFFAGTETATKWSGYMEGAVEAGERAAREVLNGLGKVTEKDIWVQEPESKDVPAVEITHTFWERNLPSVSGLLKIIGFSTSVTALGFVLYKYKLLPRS

[2] = biological target: T2, hMAO-B (Homo sapiens, UniProt P27338); assay: hMAO-B inhibition, chemiluminescent MAO-Glo assay and kinetic analysis; format: biochemical; settings: recombinant hMAO-B; mean ± SD, n = 3
T2 sequence (P27338 1-520): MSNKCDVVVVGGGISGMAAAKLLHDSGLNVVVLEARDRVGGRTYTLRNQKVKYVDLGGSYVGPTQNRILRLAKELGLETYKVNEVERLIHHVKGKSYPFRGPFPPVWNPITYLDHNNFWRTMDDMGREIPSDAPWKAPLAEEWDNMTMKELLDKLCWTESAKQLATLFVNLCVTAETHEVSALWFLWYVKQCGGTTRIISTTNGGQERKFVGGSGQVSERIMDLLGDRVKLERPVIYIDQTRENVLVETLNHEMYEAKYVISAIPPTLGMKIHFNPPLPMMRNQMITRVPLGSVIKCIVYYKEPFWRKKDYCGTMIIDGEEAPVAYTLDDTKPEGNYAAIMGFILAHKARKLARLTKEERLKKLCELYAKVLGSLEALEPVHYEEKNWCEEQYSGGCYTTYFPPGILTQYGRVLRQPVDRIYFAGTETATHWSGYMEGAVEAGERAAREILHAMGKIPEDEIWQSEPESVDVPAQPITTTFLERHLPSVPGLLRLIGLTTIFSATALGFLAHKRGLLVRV

[3] = biological target: T3, hM5 (CHRM5) (Homo sapiens, UniProt P08912); assay: GPCR cell-based functional assay, intracellular Ca2+ level, M5
T3 sequence (P08912 1-532): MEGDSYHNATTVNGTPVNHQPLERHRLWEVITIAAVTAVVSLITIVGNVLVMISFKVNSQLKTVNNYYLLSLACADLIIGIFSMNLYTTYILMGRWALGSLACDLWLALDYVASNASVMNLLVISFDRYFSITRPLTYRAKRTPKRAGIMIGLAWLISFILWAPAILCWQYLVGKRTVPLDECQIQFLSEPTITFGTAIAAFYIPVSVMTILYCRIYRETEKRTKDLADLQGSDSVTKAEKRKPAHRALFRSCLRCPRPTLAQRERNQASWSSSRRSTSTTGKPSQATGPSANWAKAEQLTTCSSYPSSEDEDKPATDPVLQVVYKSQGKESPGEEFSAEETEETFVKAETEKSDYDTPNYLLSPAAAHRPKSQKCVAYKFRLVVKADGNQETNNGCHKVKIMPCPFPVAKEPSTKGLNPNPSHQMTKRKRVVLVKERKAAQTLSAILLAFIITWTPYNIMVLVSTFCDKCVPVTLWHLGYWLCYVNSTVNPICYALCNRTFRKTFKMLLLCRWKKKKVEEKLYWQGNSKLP

[4] = biological target: hNK1 (TACR1) (Homo sapiens, UniProt P25103); assay: GPCR cell-based functional assay, intracellular Ca2+ level, NK1
Sequence of hNK1 (TACR1) (P25103 whole entry): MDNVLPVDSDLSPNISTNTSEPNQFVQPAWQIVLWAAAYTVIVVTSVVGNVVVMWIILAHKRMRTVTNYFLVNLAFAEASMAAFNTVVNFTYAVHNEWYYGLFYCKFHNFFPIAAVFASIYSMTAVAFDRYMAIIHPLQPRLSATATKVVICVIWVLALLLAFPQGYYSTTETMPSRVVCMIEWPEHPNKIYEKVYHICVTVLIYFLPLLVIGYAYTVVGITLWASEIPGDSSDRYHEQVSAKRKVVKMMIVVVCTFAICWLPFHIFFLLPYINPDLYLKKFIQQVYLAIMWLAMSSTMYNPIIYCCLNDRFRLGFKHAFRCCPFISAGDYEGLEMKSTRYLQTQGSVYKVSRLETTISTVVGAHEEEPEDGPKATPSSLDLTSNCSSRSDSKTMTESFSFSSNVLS

[5] = biological target: T4, h5-HT1A (HTR1A) (Homo sapiens, UniProt P08908); assay: GPCR cell-based functional assay, intracellular Ca2+ level, 5-HT1A
T4 sequence (P08908 1-422): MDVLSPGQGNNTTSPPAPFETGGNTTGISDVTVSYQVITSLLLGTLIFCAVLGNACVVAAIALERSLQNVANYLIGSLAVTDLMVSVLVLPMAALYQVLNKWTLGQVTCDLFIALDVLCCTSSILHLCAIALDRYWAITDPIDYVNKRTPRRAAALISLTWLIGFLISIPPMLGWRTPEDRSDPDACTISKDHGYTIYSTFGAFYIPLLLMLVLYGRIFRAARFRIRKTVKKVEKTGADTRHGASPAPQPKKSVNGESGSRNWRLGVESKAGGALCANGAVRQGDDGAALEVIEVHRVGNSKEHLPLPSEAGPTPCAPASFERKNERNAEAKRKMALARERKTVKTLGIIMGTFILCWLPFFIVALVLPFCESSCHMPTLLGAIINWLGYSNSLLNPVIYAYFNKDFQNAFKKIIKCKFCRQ

[6] = biological target: hV1A (AVPR1A) (Homo sapiens, UniProt P37288); assay: GPCR cell-based functional assay, intracellular Ca2+ level, V1A
Sequence of hV1A (AVPR1A) (P37288 whole entry): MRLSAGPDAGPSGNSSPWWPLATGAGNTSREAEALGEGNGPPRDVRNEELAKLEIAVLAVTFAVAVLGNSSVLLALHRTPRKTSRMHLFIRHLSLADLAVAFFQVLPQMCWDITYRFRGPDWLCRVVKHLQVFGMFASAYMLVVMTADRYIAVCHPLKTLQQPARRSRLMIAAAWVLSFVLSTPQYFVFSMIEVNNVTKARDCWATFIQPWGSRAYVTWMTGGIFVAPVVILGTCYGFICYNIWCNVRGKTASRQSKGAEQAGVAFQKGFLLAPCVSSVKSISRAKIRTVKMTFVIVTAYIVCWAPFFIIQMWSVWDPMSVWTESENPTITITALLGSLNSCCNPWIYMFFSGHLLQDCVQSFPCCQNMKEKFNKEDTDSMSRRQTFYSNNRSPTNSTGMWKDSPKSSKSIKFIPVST

[7] = biological target: T5, hD1 (DRD1) (Homo sapiens, UniProt P21728); settings: agonist effect at 100 µM
T5 sequence (P21728 whole entry): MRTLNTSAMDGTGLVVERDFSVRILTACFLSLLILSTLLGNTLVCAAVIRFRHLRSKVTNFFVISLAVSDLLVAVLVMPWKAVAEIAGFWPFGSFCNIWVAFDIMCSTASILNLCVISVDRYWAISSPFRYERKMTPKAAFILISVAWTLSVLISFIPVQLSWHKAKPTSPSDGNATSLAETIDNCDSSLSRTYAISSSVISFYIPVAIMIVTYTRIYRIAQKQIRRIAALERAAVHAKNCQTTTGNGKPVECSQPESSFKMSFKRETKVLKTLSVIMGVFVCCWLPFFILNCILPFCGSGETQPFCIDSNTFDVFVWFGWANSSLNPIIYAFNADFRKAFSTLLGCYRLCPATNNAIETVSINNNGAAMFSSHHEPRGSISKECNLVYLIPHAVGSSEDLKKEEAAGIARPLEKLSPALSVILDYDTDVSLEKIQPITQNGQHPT

[8] = biological target: T6, hD3 (DRD3) (Homo sapiens, UniProt P35462)
T6 sequence (P35462 whole entry): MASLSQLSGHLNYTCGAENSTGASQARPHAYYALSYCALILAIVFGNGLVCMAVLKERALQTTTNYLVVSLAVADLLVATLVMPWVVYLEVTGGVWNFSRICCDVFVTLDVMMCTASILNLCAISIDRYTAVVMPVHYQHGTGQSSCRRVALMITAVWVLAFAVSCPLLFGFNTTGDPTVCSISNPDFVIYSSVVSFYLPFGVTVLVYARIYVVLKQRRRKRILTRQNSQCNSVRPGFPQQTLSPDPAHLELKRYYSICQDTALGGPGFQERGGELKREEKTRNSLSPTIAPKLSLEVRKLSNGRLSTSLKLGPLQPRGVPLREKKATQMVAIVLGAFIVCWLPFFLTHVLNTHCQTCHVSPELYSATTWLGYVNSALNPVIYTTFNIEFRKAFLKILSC

[9] = biological target: T5, hD1 (DRD1); assay: cell-based; settings: read-out: % Inhibition of control agonist response, hD1
[10] = biological target: T6, hD3 (DRD3); assay: cell-based; settings: read-out: % Inhibition of control agonist response, hD3
[11] = biological target: T7, hD4 (DRD4) (Homo sapiens, UniProt P21917)
T7 sequence (P21917 1-419): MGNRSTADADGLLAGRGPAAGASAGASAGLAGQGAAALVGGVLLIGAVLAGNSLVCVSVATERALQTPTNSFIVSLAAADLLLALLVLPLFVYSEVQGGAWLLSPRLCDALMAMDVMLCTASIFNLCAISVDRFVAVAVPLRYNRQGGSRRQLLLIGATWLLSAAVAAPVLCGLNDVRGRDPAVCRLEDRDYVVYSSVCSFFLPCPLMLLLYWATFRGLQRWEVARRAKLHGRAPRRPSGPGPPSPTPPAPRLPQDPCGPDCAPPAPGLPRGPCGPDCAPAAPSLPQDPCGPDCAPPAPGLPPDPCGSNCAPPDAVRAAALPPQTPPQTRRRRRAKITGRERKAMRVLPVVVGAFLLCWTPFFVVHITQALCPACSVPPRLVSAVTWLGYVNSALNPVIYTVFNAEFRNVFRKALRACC

[12] = recombinant hMAO-A, mean ± SD, n = 3
[13] = concentration-dependent stimulation, mean ± SD

Compound: Oc1cc(O)c2oc3cc(O)c4oc5cc(O)cc(O)c5oc4c3oc2c1 [Dioxinodehydroeckol, dioxinodehydroeckol]
IC50 [1]: > 300 µM
IC50 hMAO-A [1, 12]: no inhibitory activity
IC50 [2]: > 300 µM
IC50 hMAO-B [2]: no inhibitory activity

IC50 hMAO-A [1, 12]: no inhibitory activity
IC50 ([1]; recombinant hMAO-A, mean ± SD, n = 3, read-out: IC50 hMAO-A): > 900 µM
IC50 [2]: > 900 µM
IC50 hMAO-B [2]: no inhibitory activity
% Stimulation of control agonist response, hM5 ([3]; agonist effect at 100 µM): −6.05 ± 0.78 ^B %
inhibition at 100 µM ([3]; antagonist effect at 100 µM, read-out: % Inhibition of control agonist response, hM5): -21.6%
% Stimulation of control agonist response, hNK1 ([4]; agonist effect at 100 µM): −0.85 ± 0.21 ^C %
inhibition at 100 µM ([4]; antagonist effect at 100 µM, read-out: % Inhibition of control agonist response, hNK1): -8.05%
% Stimulation of control agonist response, h5-HT1A ([5]; agonist effect at 100 µM): 0.10 ± 0.28 ^B %
inhibition at 100 µM ([5]; antagonist effect at 100 µM, read-out: % Inhibition of control agonist response, h5-HT1A): -4.15%
% Stimulation of control agonist response, hV1A ([6]; agonist effect at 100 µM): −0.80 ± 0.57 ^C %
inhibition at 100 µM ([6]; antagonist effect at 100 µM, read-out: % Inhibition of control agonist response, hV1A): 13.9%
% Stimulation of control agonist response, hD1 [7]: 0.20 ± 3.82 ^A %
% Stimulation of control agonist response, hD3 ([8]; agonist effect at 100 µM): −0.15 ± 14.07 ^C %
EC50, dopamine D3 agonist effect [8, 13]: No activity
inhibition at 100 µM [9]: 4.95%
inhibition at 100 µM [10]: -6.75%
% Stimulation of control agonist response, hD4 ([11]; agonist effect at 100 µM): −9.95 ± 14.50 ^C %
EC50, dopamine D4 agonist effect [11, 13]: No activity
inhibition at 100 µM ([11]; read-out: % Inhibition of control agonist response, hD4): -7.05%
Compound: Oc1cc(O)cc(O)c1 [Phloroglucinol, phloroglucinol]

IC50 ([4]; positive control, read-out: IC50 of standard antagonist, hNK1): 0.0016 µM
Compound: FC(F)(F)c1cc(CO[C@H]2CCCN[C@H]2c2ccccc2)cc(C(F)(F)F)c1 [L-733,060, reference compound]

Reference: publication PMC6627067, “Probing Multi-Target Action of Phlorotannins as New Monoamine Oxidase Inhibitors and Dopaminergic Receptor Modulators with the Potential for Treatment of Neuronal Disorders” (Marine Drugs, 2019)
